Our source for the ED50 values is ChEMBL document CHEMBL1143098, “Design and synthesis of 6-amino-1,4-oxazepane-3,5-dione derivatives as novel broad spectrum anticonvulsants” (2008).

For assay [1], the species on record is Mus musculus. Briefly: Anticonvulsant activity in ICR mouse after 30 mins by MES test. The class given is functional. The note with it: 0.5 h.
For assay [2], the species on record is Mus musculus. The experiment in a line: Anticonvulsant activity against pentylenetetrazole-induced seizure in ICR mouse after 30 mins. In kind it is functional. The note with it: 0.5 h.

Where only a bound is given, the exact number is not on record here.

For the molecule `O=C(NC1COCC(=O)N(Cc2ccc(F)cc2)C1=O)OCc1ccccc1` (stereo unspecified), the ED50 is > 100 mg/kg in the assay filed under Mus musculus [1] and 53.9 mg/kg in the assay listed under Mus musculus [2].
In the same order, the values of `O=C(NC1COCC(=O)N(Cc2ccco2)C1=O)OCc1ccccc1` (stereo unspecified) are > 100 mg/kg and 64.1 mg/kg.
In the same order, the values of `O=C(NC1COCC(=O)N(Cc2ccccc2)C1=O)OCc1ccccc1` (stereo unspecified) are > 100 mg/kg and 64.1 mg/kg.
As for `CCCCCCN1C(=O)COCC(NC(=O)OCc2ccccc2)C1=O` (stereo unspecified), the ED50 in the assay listed under Mus musculus [1] is 87.5 mg/kg; in the assay listed under Mus musculus [2], 35.6 mg/kg.
In the same order, the values of `CC(C)CN1C(=O)COCC(NC(=O)OCc2ccccc2)C1=O` (stereo unspecified) are > 100 mg/kg and > 100 mg/kg.
For the molecule `O=C(NC1COCC(=O)N(C2CC2)C1=O)OCc1ccccc1` (stereo unspecified), the ED50 is 87.5 mg/kg in the assay listed under Mus musculus [1] and 27 mg/kg in the assay listed under Mus musculus [2].
With `CN1C(=O)COCC(NC(=O)OCc2ccccc2)C1=O` (stereo unspecified), the ED50 in the assay listed under Mus musculus [1] was 68.8 mg/kg; in the assay listed under Mus musculus [2], 41 mg/kg.
In the same order, the values of `CCCN1C(=O)COCC(NC(=O)OCc2ccccc2)C1=O` (stereo unspecified) are > 100 mg/kg and > 100 mg/kg.
In the same order, the values of `O=C1COCC(NC(=O)OCc2ccccc2)C(=O)N1` (stereo unspecified) are 81.2 mg/kg and 55.1 mg/kg.
In the case of `C=CCN1C(=O)COCC(NC(=O)OCc2ccccc2)C1=O` (stereo unspecified), the results for the ED50 in the assay filed under Mus musculus [1] and in the assay filed under Mus musculus [2] were 70.3 mg/kg and 37.1 mg/kg, respectively.
In the same order, the values of `CCCCN1C(=O)COCC(NC(=O)OCc2ccccc2)C1=O` (stereo unspecified) are 93.8 mg/kg and 34.8 mg/kg.
In the same order, the values of `O=C(NC1COCC(=O)N(O)C1=O)OCc1ccccc1` (stereo unspecified) are 93.8 mg/kg and 96.9 mg/kg.
In the same order, the values of `CCCC(CCC)C(=O)O` [VALPROIC ACID] are 271 mg/kg and 149 mg/kg.

The ED50 is the midpoint of the dose-response relation. Read a high ED50 as weaker potency.
